According to ChEMBL document CHEMBL1201862, “PubChem BioAssay data set” (2004):
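Cultured in 96-well plates, cells were exposed to test compound for 48 hours across five concentrations. GI50: concentration for 50% inhibition of growth.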 Activity calls are given as the source filed them. Rule as the data show it: active = GI50 up to about 1.1 µM and inactive = higher.

Tests used:
Experiment in all cases: inhibition of tumour cell growth, NCI panel, 48 h
BT-549 = system: BT-549
DMS-273 = system: DMS-273
LXFL 529 = system: LXFL 529
DLD-1 = system: DLD-1
XF498 = system: XF498
HOP-18 = system: HOP-18
KM-20L2 = system: KM-20L2
M19-MEL = system: M19-MEL
RXF 631 = system: RXF 631

Compound	GI50 (BT-549)	GI50 (DMS-273)	GI50 (LXFL 529)	GI50 (DLD-1)	GI50 (XF498)	GI50 (HOP-18)	GI50 (KM-20L2)	GI50 (M19-MEL)	GI50 (RXF 631)
C=CCN1C(=O)/C(=C/c2ccc(OC)cc2)NC1=S	50.2 µM (inactive)	–	–	–	–	–	–	–	–
O=[N+]([O-])C(/C=C(\Cl)[N+](=O)[O-])=C1Nc2ccccc2N1	42 µM (inactive)	–	–	–	–	–	–	–	–
CCOP(=Nc1ccc(N(C)C)cc1)(OCC)OCC	> 100 µM (inactive)	–	–	–	–	–	–	–	–
NC(=O)c1csc(C2O[C@@H](COP(=O)(O)OP(=O)(O)OC[C@H]3OC(n4cnc5c(N)ncnc54)[C@H](O)[C@@H]3O)[C@H](O)[C@@H]2O)n1 (stereo not given in full)	–	99.5 µM (inactive)	> 100 µM (inactive)	45.2 µM (inactive)	33.2 µM (inactive)	> 100 µM (inactive)	> 100 µM (inactive)	–	–
CCOC(=O)c1cc2c([N+](=O)[O-])c(NC(C)=O)ccc2s1	72.1 µM (inactive)	–	–	–	–	–	–	–	–
Cc1cccc(/C=C2\CCCc3ccccc3C2=O)c1	24.3 µM (inactive)	–	–	–	–	–	–	–	–
CSCCC(N)P(C)(=O)O (stereo not given)	> 100 µM (inactive)	–	–	–	–	–	–	–	–
O=CN1CCC23CC(O)CCC2C1Cc1cc(Oc2nnnn2-c2ccccc2)cc(O)c13 (stereo not given)	51.9 µM (inactive)	–	–	–	–	–	–	–	–
COc1c(Cl)cc(Cl)cc1S(=O)O	–	–	> 100 µM (inactive)	> 100 µM (inactive)	> 100 µM (inactive)	–	–	> 100 µM (inactive)	–
COc1ccc(C2=NN(c3nsc4ccccc34)C(=O)CC2)cc1	–	> 100 µM (inactive)	75 µM (inactive)	–	–	12.6 µM (inactive)	> 100 µM (inactive)	> 100 µM (inactive)	–
CC(C)(C)[Si](OC1CCOC1=O)(c1ccccc1)c1ccccc1 (stereo not given)	–	–	20.7 µM (inactive)	22.2 µM (inactive)	11.1 µM (inactive)	18.9 µM (inactive)	14.5 µM (inactive)	19.2 µM (inactive)	22.5 µM (inactive)
CC1CC(NC2CCCCC2)=Nc2ccccc2N1Cc1ccccc1 (stereo not given)	6.05 µM (inactive)	–	–	–	–	–	–	–	–
C=C1CC(OC)(C(O)C(=O)N[C@H]2OCO[C@H]3C2O[C@H](C[C@@H](COC)OC)C(C)(C)C3OC)O[C@H](C)[C@@H]1C (stereo not given in full)	–	< 0.00482 µM (active)	–	< 0.00482 µM (active)	< 0.00482 µM (active)	< 0.00482 µM (active)	< 0.00482 µM (active)	< 0.00482 µM (active)	–
COc1ccc(C2CC(c3sc(Nc4ccc(C)cc4)nc3C)=NN2)cc1 (stereo not given)	–	18.8 µM (inactive)	–	14 µM (inactive)	21 µM (inactive)	15.3 µM (inactive)	16.1 µM (inactive)	> 44.1 µM (inactive)	–
COC(=O)C(=O)C(C(C)=O)C(=O)C(=O)Nc1ccc(C)cc1C (stereo not given)	–	> 100 µM (inactive)	> 100 µM (inactive)	> 100 µM (inactive)	> 100 µM (inactive)	–	> 100 µM (inactive)	> 100 µM (inactive)	–
CC[C@@H]1C[C@@H]2CN3CCc4c([nH]c5ccc(OC)cc45)C(COC(=O)c4ccc(OC)c(OC)c4)(C2)C13	–	–	10.6 µM (inactive)	–	17.3 µM (inactive)	58.2 µM (inactive)	15.6 µM (inactive)	36 µM (inactive)	–
NC(=S)N/N=C1\CC(c2ccccc2)Nc2ccccc21 (stereo not given)	–	32.3 µM (inactive)	33.8 µM (inactive)	35.2 µM (inactive)	6.76 µM (inactive)	54.6 µM (inactive)	18.5 µM (inactive)	39.4 µM (inactive)	–
CON(C)C(=O)C(Cc1ccccc1)NC(=O)OCc1ccccc1 (stereo not given)	–	> 100 µM (inactive)	> 100 µM (inactive)	> 100 µM (inactive)	64.3 µM (inactive)	–	> 100 µM (inactive)	> 100 µM (inactive)	–
CC(C)CC(NC(=O)OCc1ccccc1)C(=O)NCCCCC(N)C(=O)NC(CCCCNC(=O)C(CC(C)C)NC(=O)OCc1ccccc1)C(=O)NC(CCCCNC(=O)C(CC(C)C)NC(=O)OCc1ccccc1)C(=O)NC(CCCCNC(=O)C(CC(C)C)NC(=O)OCc1ccccc1)C(=O)NC(CCCCNC(=O)C(CC(C)C)NC(=O)OCc1ccccc1)C(=O)NC(CCCCNC(=O)C(CC(C)C)NC(=O)OCc1ccccc1)C(=O)O (stereo not given)	> 100 µM (inactive)	–	–	–	–	–	–	–	–
C=CCn1c(=O)ccn(COCCO)c1=O	> 100 µM (inactive)	–	–	–	–	–	–	–	–
O=NN(CCCl)C(=O)N[C@H]1CC[C@H](C(=O)O)CC1	–	> 100 µM (inactive)	–	> 100 µM (inactive)	> 100 µM (inactive)	> 100 µM (inactive)	> 100 µM (inactive)	> 100 µM (inactive)	–
O=P(CCOc1ccccc1OCCP(=O)(c1ccccc1)c1ccc2c(c1)OCCOCCOCCOCCO2)(c1ccccc1)c1ccc2c(c1)OCCOCCOCCOCCO2 (stereo not given)	–	> 100 µM (inactive)	> 100 µM (inactive)	> 100 µM (inactive)	> 100 µM (inactive)	–	> 100 µM (inactive)	> 100 µM (inactive)	–
